Active and inactive are the calls of the source. No cut-off for these calls is given here.
How the values were obtained:
HT-22 [1] = assay: Induction of apoptosis in glutamate-induced mouse HT-22 cells assessed as reduction in C-caspase 3 activation at 10 to 20 uM incubated for 12 hrs by immunofluorescence analysis; type: functional, cell-based; conditions: dose 10-20 µM
HT-22 [2] = assay: Effect on STEP expression in mouse HT-22 cells by Western blot analysis; type: functional, cell-based
HT-22 [3] = assay: Cytotoxicity against mouse HT-22 cells assessed as effect on cell viability at 40 uM incubated for 48 hrs by CCK-8 assay; type: toxicity, cell-based; conditions: ht-22, 48 h
HT-22 [4] = assay: Anti-apoptotic activity in glutamate-induced mouse HT-22 cells assessed as increase in BCL-2 expression at 10 to 20 uM incubated for 12 hrs by Western blot analysis; type: functional, cell-based; conditions: dose 10-20 µM
HT-22 [5] = assay: Induction of apoptosis in glutamate-induced mouse HT-22 cells assessed as early apoptotic cells at 10 uM incubated for 12 hrs by Annexin V/PI staining based flow cytometry analysis (reference value: 1.23 %); type: functional
HT-22 [6] = assay: Anti-apoptotic activity in glutamate-induced mouse HT-22 cells assessed as increase in BCL-2 expression at 10 to 20 uM incubated for 12 hrs by immunofluorescence analysis; type: functional, cell-based; conditions: dose 10-20 µM
HT-22 [7] = assay: Induction of apoptosis in glutamate-induced mouse HT-22 cells assessed as necrotic cells at 20 uM incubated for 12 hrs by Annexin V/PI staining based flow cytometry analysis (reference value: 3.63 %); type: functional
PC-12 = assay: Cytotoxicity against PC-12 cells at 40 uM incubated for 48 hrs by CCK-8 assay; type: toxicity, cell-based; conditions: rat, pc-12, 48 h
[8] = target: T1, Tyrosine-protein phosphatase non-receptor type 2 (Homo sapiens, UniProt P17706); assay: Inhibition of TCPTP (unknown origin)
T1 sequence (P17706 whole entry): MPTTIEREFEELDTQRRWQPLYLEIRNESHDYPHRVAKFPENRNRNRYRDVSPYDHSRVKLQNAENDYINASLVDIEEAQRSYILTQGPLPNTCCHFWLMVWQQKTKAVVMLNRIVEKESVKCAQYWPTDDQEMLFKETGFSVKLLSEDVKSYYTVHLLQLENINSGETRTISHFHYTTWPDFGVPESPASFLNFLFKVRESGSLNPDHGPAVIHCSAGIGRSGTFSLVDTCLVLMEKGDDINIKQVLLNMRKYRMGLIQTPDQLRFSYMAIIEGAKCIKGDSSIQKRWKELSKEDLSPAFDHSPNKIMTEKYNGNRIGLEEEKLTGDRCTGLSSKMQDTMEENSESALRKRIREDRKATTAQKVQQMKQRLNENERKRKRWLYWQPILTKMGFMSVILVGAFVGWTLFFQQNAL

HT-22 [9] = assay: Induction of apoptosis in glutamate-induced mouse HT-22 cells assessed as necrotic cells at 10 uM incubated for 12 hrs by Annexin V/PI staining based flow cytometry analysis (reference value: 3.63 %); type: functional
HT-22 [10] = assay: Induction of apoptosis in glutamate-induced mouse HT-22 cells assessed as viable cells at 20 uM incubated for 12 hrs by Annexin V/PI staining based flow cytometry analysis (reference value: 92.6%); type: functional; conditions: read-out: Activity
Cortical neurone [11] = assay: Neuroprotective activity against OGD/R induced C57BL/6J mouse Primary cortical neuron assessed as decrease in C-caspase3 expression at 10 to 20 uM incubated for 12 hrs by immunofluorescence analysis; type: functional, cell-based; conditions: dose 10-20 µM
HT-22 [12] = assay: Induction of apoptosis in glutamate-induced mouse HT-22 cells assessed as viable cells at 10 uM incubated for 12 hrs by Annexin V/PI staining based flow cytometry analysis (reference value: 92.6%); type: functional; conditions: read-out: Activity
Cortical neurone [13] = assay: Neuroprotective activity against OGD/R induced C57BL/6J mouse Primary cortical neuron assessed as decrease in BAX expression at 10 to 20 uM incubated for 12 hrs by immunofluorescence analysis; type: functional, cell-based; conditions: dose 10-20 µM
HT-22 [14] = assay: Anti-apoptotic activity in glutamate-induced mouse HT-22 cells assessed as decrease in BAX expression at 10 to 20 uM incubated for 12 hrs by Western blot analysis; type: functional, cell-based; conditions: dose 10-20 µM
Cortical neurone [15] = assay: Neuroprotective activity against OGD/R induced C57BL/6J mouse Primary cortical neuron assessed as alleviation in neuronal apoptosis at 10 to 20 uM incubated for 12 hrs by TUNEL staining based analysis; type: functional, cell-based; conditions: dose 10-20 µM
HT-22 [16] = assay: Neuroprotective activity against glutamate-induced cytotoxicity in mouse HT-22 cells at 10 to 20 uM assessed as cell death measured after 14 hrs by CCK8 assay; type: functional, cell-based; conditions: dose 10-20 µM
HT-22 [17] = assay: Induction of apoptosis in glutamate-induced mouse HT-22 cells assessed as late apoptotic cells at 10 uM incubated for 12 hrs by Annexin V/PI staining based flow cytometry analysis (reference value: 2.55 %); type: functional
[18] = target: T2, Receptor-type tyrosine-protein phosphatase O (Homo sapiens, UniProt Q16827); assay: Inhibition of PTPRO (unknown origin)
T2 sequence (Q16827 whole entry): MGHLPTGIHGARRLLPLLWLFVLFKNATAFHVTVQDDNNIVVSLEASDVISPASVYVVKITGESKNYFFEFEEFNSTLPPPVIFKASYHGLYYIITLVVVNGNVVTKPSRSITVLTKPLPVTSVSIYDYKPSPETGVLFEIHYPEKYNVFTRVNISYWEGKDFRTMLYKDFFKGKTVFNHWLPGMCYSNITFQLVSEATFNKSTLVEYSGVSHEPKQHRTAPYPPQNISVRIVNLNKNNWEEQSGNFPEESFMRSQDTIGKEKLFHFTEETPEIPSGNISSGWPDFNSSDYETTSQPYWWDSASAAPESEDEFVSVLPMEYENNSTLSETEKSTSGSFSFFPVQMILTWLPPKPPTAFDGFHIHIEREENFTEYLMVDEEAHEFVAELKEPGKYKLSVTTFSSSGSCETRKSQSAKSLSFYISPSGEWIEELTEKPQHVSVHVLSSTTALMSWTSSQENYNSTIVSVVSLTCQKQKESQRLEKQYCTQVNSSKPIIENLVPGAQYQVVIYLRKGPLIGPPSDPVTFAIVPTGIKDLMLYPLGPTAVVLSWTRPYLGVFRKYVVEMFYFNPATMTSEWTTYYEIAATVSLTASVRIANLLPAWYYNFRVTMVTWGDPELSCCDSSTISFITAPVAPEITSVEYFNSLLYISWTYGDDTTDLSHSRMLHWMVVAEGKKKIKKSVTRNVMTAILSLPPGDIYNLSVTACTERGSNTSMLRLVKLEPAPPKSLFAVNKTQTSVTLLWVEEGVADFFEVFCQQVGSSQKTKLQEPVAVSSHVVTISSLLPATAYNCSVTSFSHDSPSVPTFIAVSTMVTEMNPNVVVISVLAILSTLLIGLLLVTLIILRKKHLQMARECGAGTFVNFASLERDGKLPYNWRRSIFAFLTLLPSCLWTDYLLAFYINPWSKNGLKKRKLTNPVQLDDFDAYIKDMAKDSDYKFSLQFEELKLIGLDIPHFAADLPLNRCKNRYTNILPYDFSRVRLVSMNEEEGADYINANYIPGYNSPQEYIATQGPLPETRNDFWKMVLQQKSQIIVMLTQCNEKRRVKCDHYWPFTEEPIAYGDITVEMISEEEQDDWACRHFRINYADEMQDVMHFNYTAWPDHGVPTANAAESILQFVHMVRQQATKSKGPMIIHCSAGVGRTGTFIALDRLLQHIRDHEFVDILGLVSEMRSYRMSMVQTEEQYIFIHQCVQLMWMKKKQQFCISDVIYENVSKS

HT-22 [19] = assay: Induction of apoptosis in glutamate-induced mouse HT-22 cells assessed as early apoptotic cells at 20 uM incubated for 12 hrs by Annexin V/PI staining based flow cytometry analysis (reference value: 1.23 %); type: functional
Cortical neurone [20] = assay: Neuroprotective activity against OGD/R induced C57BL/6J mouse Primary cortical neuron assessed as increase in BCL-2 expression at 10 to 20 uM incubated for 12 hrs by immunofluorescence analysis; type: functional, cell-based; conditions: dose 10-20 µM
HT-22 [21] = assay: Neuroprotective activity against glutamate-induced cytotoxicity in mouse HT-22 cells at 10 to 20 uM assessed as increase in cell viability measured after 14 hrs by CCK8 assay; type: functional, cell-based; conditions: dose 10-20 µM
HT-22 [22] = assay: Induction of apoptosis in glutamate-induced mouse HT-22 cells assessed as reduction in C-caspase 3 activation at 10 to 20 uM incubated for 12 hrs by Western blot analysis; type: functional, cell-based; conditions: dose 10-20 µM
[23] = target: T3, Tyrosine-protein phosphatase non-receptor type 1 (Homo sapiens, UniProt P18031); assay: Inhibition of PTP1B (unknown origin)
T3 sequence (P18031 whole entry): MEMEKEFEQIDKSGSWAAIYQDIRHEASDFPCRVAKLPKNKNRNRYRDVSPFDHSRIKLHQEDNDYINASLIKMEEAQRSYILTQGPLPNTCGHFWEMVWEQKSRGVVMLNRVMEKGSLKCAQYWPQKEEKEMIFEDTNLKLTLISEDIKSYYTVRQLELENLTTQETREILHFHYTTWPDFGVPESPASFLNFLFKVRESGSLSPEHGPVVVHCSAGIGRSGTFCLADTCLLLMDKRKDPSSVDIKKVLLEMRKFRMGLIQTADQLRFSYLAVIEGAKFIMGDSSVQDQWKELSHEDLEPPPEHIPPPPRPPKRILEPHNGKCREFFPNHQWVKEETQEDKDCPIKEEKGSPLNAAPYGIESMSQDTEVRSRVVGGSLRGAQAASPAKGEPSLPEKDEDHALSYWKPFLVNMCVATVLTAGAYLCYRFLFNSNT

Cortical neurone [24] = assay: Neuroprotective activity against OGD/R induced C57BL/6J mouse Primary cortical neuron assessed as alleviation in neuronal apoptosis at 10 to 20 uM incubated for 12 hrs by immunofluorescence analysis; type: functional, cell-based; conditions: dose 10-20 µM
HT-22 [25] = assay: […] glutamate-induced ROS accumulation in mouse HT-22 cells assessed as reduction in fluorescent intensity at 10 to 20 uM incubated for 14 hrs by DCFH-DA staining based inverted fluorescence microscopic analysis; type: functional, cell-based; conditions: dose 10-20 µM
[26] = target: T4, Tyrosine-protein phosphatase non-receptor type 22 (Homo sapiens, UniProt Q9Y2R2); assay: Inhibition of LYP (unknown origin)
T4 sequence (Q9Y2R2 whole entry): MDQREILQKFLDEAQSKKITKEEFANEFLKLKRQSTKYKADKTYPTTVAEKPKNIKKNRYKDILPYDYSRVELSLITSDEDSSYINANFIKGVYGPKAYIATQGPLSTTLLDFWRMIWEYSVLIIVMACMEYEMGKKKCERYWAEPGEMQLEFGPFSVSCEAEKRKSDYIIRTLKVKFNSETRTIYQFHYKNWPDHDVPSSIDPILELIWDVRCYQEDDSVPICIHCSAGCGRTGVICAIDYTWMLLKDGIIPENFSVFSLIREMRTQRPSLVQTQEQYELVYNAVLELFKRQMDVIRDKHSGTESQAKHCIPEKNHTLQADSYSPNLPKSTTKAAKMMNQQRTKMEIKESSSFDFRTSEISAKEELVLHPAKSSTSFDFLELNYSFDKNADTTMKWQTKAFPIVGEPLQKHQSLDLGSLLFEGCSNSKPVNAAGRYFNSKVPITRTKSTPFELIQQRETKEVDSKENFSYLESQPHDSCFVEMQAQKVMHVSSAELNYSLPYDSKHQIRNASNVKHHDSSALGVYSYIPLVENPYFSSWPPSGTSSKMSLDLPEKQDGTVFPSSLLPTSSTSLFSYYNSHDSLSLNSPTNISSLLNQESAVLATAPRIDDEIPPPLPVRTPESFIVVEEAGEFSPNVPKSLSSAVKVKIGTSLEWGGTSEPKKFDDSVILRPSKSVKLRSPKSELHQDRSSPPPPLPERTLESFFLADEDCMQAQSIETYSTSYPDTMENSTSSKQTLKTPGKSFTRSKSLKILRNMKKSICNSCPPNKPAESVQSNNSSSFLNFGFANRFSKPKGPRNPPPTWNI

HT-22 [27] = assay: Induction of apoptosis in glutamate-induced mouse HT-22 cells assessed as late apoptotic cells at 20 uM incubated for 12 hrs by Annexin V/PI staining based flow cytometry analysis (reference value: 2.55 %); type: functional
HT-22 [28] = assay: Anti-apoptotic activity in glutamate-induced mouse HT-22 cells assessed as decrease in BAX expression at 10 to 20 uM incubated for 12 hrs by immunofluorescence analysis; type: functional, cell-based; conditions: dose 10-20 µM

Structure (SMILES): O=C(O)c1ccc(-c2ccc(/C=C3\C(=O)c4cccc([N+](=O)[O-])c4C3=O)o2)c(Cl)c1
- Activity (HT-22 [1]): Active
- Activity (HT-22 [2]): Active
- Activity (HT-22 [3]): Non-toxic
- Activity (HT-22 [4]): Active
- Activity (HT-22 [5]): 3.15%
- Activity (HT-22 [6]): Active
- Activity (HT-22 [7]): 1.26%
- Activity (PC-12): Non-toxic
- IC50 [8]: 44 µM
- Activity (HT-22 [9]): 0.92%
- viability at 20 µM (HT-22 [10]): 93.2%
- Activity (Cortical neurone [11]): Active
- viability at 10 µM (HT-22 [12]): 91.9%
- Activity (Cortical neurone [13]): Active
- Activity (HT-22 [14]): Active
- Activity (Cortical neurone [15]): Active
- Activity (HT-22 [16]): Active
- Activity (HT-22 [17]): 4.02%
- IC50 [18]: 14.3 µM
- Activity (HT-22 [19]): 2.02%
- Activity (Cortical neurone [20]): Active
- Activity (HT-22 [21]): Active
- Activity (HT-22 [22]): Active
- IC50 [23]: 9.01 µM
- Activity (Cortical neurone [24]): Active
- Activity (HT-22 [25]): Active
- IC50 [26]: 11.2 µM
- Activity (HT-22 [27]): 3.57%
- Activity (HT-22 [28]): Active

Reference: ChEMBL document CHEMBL6078701, “Design and synthesis of novel benzoic acid derivatives as striatal-enriched protein tyrosine phosphatase (STEP) inhibitors with neuroprotective properties” (Eur J Med Chem, 2025)
